Entries after “also recorded” stand apart in the source; their conditions may differ.

Format in all cases: cell-based
Assay [1] relates to wild type mouse H3 receptor and mouse H3 receptor mutants MT1, MT2, MT3, MT5, MT6. Particulars: 10 μM forskolin. On the procedure:
(§1) Wild type mouse H3 receptor cDNA and the five mouse H3 receptor mutant cDNAs were each transfected into cell line HEK293, and screened with G418 to obtain their respective stable clones. Northern analysis was used to check expression levels, and stable clones with roughly equal expression levels were used in the experiment.
(§2) Since H3 receptors are Gi-binding-type G protein-coupled receptors, cAMP levels were measured using ELISA. More specifically, 10^5 cells per well were cultured in a 24-well plate the day before testing. On the day of the test, cells were cultured for 15 minutes in the absence of serum, and then treated for 15 minutes with 0.5 mM IBMX. Forskolin (10 μM), histamine (10^−11 M to 10^−6 M) and thioperamide (10^−10 M to 10^−5 M) were respectively added, and the cells were treated for 15 minutes. The cAMP Enzyme Immunoassay (EIA) System (Amersham) was used to measure cAMP. The cells were lysed with 150 μl of lysing reagent 1B, provided with the kit. 5 μl of the cell lysate and rabbit anti-cAMP antibody were reacted by being allowed to stand undisturbed at 4° C. for two hours on an antibody-immobilized plate. Moreover, enzyme-labeled antibody was added and reacted by being allowed to stand undisturbed at 4° C. for one hour. The plate was washed with buffer, and enzyme substrate solution was then added and reacted by being allowed to stand undisturbed at room temperature for about 30 minutes. The reaction was stopped with 1 N sulfuric acid, and optical absorbance was then measured. A standard curve was produced from the optical absorbances of standard cAMP solutions, and cAMP levels were determined.

Assay [2] has as its target T1, wild type mouse H3 receptor and mouse H3 receptor mutants MT1, MT2, MT3, MT5, MT6 (Mus musculus, UniProt P58406, A357K).
T1 construct: expressed in transfected cells
On the procedure: as §1, §2

Assay [3] has as its target T2, MT6 clone (constitutively active mouse H3 receptor mutant) (Mus musculus, UniProt P58406, A357K).
T2 construct: expressed in transfected cells
The assay can be described thus: cAMP levels by ELISA (cAMP EIA) in the HEK293 MT6 clone, with 10 μM forskolin. Particulars: thioperamide with 10 μM forskolin; MT6 clone versus wild type H3. On the procedure:
as §1
as §2, with “Moreover, enzyme-labeled antibody was added and reacted by being allowed to stand undisturbed at 4° C. for one hour. The plate was washed with buffer, and enzyme substrate solution was then added and reacted by being allowed to stand undisturbed at room temperature for about 30 minutes.” left out
A general note: Changes in cAMP serve as a functional read-out for many G protein-coupled receptors.

T1 sequence (P58406 whole entry A357K): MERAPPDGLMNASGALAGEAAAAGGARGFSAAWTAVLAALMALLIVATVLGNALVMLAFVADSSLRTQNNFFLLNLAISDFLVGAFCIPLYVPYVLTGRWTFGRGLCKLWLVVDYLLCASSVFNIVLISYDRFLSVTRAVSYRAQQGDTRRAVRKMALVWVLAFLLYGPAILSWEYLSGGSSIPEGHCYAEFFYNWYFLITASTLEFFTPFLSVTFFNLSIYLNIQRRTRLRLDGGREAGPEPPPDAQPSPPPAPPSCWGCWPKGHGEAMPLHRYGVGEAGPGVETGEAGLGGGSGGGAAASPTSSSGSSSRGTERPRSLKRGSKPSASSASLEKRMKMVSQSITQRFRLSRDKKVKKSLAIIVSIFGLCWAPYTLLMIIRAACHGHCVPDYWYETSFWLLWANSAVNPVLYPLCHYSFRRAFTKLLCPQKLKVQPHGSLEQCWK
T2 sequence (P58406 whole entry A357K): as above

On to `NCCc1c[nH]cn1` [histamine], for which the “change in cAMP levels caused by histamine” value in assay [1] (all clones, histamine 10^-11 M to 10^-6 M, 15 minutes, FIG. 4) was “decrease in a histamine dose-dependent manner; also recorded: decreased histamine dose-dependently”. `S=C(NC1CCCCC1)N1CCC(c2cnc[nH]2)CC1` [thioperamide]: the “change in cAMP levels caused by thioperamide” value in assay [2] is on record as “increase with increased doses of thioperamide; also recorded: increase cAMP levels dose-dependently”. For the same molecule, the “cAMP increase in MT6 clone compared to the wild type” value in assay [3] is listed as “about five-fold”.

In the case of pertussis toxin [PTX], in assay [1] (wild type H3 and MT6 clones, PTX 100 ng/ml for 18 hours), the “effect of PTX on the cAMP increases caused by thioperamide” value is reported as “inhibited the increases in cAMP caused by thioperamide”.

Source of the values: US7279293B2 (priority 2002, dated 2007).
